Assay results taken from the NIST ThermoML archive (doi:10.1021/acs.jced.5b00738).
Numbers after ± are expanded uncertainties.

Experiment: refractive index (Na D-line) (dimensionless)
Details: 298.15 K; 101.33 kPa; Liquid; Standard Abbe refractometry

| SMILES | refractive index |
| --- | --- |
| O [water] | 1.33249 ± 0.001 |
| O=Cc1ccco1 [2-furaldehyde] | 1.52263 ± 0.001 |
| CCC(C)(C)O [2-methylbutan-2-ol] | 1.40219 ± 0.001 |
| CC(=O)CC(C)C [4-methylpentan-2-one] | 1.39327 ± 0.001 |
| CC(C)=O [acetone] | 1.35553 ± 0.001 |
